Key:
Experiment in all cases: relative viability (nuclei count vs DMSO), 5 days (fraction); higher = more cells survive
BMX-IN-1 + Dasatinib = compound: C=CC(=O)Nc1cc(-n2c(=O)ccc3cnc4ccc(-c5ccc(NS(C)(=O)=O)cc5)cc4c32)ccc1C [BMX-IN-1] + Cc1nc(Nc2ncc(C(=O)Nc3c(C)cccc3Cl)s2)cc(N2CCN(CCO)CC2)n1 [Dasatinib] (partner 0.075 µM)
Procedure, shortened: (§1)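 Nuclei were stained with Hoechst during a one-step fixation (final 0.05% Triton X-100, 1% formaldehyde, 1 ug/ml Hoechst) carried out 5 days after dosing, then counted on 4× images. The cells, lung cancer lines in 1536-well plates, had been dosed by pin tool the day after seeding with one drug alone or a fixed anchor-drug dose plus five library-drug doses (not always all listed) in √10 steps. Relative viability is the nuclei count in treated wells divided by that in vehicle wells, and each value is the median of duplicate plates.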

BMX-IN-1 + Phenformin = compound: C=CC(=O)Nc1cc(-n2c(=O)ccc3cnc4ccc(-c5ccc(NS(C)(=O)=O)cc5)cc4c32)ccc1C [BMX-IN-1] + N=C(N)NC(=N)NCCc1ccccc1 [Phenformin] (partner 250 µM)
Procedure, shortened: as §1

BMX-IN-1 + Decitabine = compound: C=CC(=O)Nc1cc(-n2c(=O)ccc3cnc4ccc(-c5ccc(NS(C)(=O)=O)cc5)cc4c32)ccc1C [BMX-IN-1] + Nc1ncn([C@H]2C[C@H](O)[C@@H](CO)O2)c(=O)n1 [Decitabine] (partner 2 µM)
Procedure, shortened: as §1

PAC-1 + Bortezomib = compound: C=CCc1cccc(/C=N/NC(=O)CN2CCN(Cc3ccccc3)CC2)c1O [PAC-1] + CC(C)C[C@H](NC(=O)[C@H](Cc1ccccc1)NC(=O)c1cnccn1)B(O)O [Bortezomib] (partner 0.002 µM)
Procedure, shortened: as §1

PAC-1 + Decitabine = compound: C=CCc1cccc(/C=N/NC(=O)CN2CCN(Cc3ccccc3)CC2)c1O [PAC-1] + Nc1ncn([C@H]2C[C@H](O)[C@@H](CO)O2)c(=O)n1 [Decitabine] (partner 2 µM)
Procedure, shortened: as §1

Row | Cell Line | relative viability (BMX-IN-1 + Dasatinib; first compound 0.02 µM) | relative viability (BMX-IN-1 + Dasatinib; first compound 0.2 µM) | relative viability (BMX-IN-1 + Dasatinib; first compound 0.6325 µM) | relative viability (BMX-IN-1 + Dasatinib; first compound 2 µM) | relative viability (BMX-IN-1 + Phenformin; first compound 0.02 µM) | relative viability (BMX-IN-1 + Phenformin; first compound 0.2 µM) | relative viability (BMX-IN-1 + Phenformin; first compound 0.6325 µM) | relative viability (BMX-IN-1 + Phenformin; first compound 2 µM) | relative viability (BMX-IN-1 + Decitabine; first compound 0.02 µM) | relative viability (BMX-IN-1 + Decitabine; first compound 0.2 µM) | relative viability (BMX-IN-1 + Decitabine; first compound 0.6325 µM) | relative viability (BMX-IN-1 + Decitabine; first compound 2 µM) | relative viability (PAC-1 + Bortezomib; first compound 0.02 µM) | relative viability (PAC-1 + Bortezomib; first compound 0.06325 µM) | relative viability (PAC-1 + Bortezomib; first compound 0.2 µM) | relative viability (PAC-1 + Bortezomib; first compound 2 µM) | relative viability (PAC-1 + Decitabine; first compound 0.02 µM) | relative viability (PAC-1 + Decitabine; first compound 0.06325 µM) | relative viability (PAC-1 + Decitabine; first compound 0.2 µM) | relative viability (PAC-1 + Decitabine; first compound 2 µM)
1 | HCC-366 | 0.907 | 0.741 | 0.618 | 0.71 | 0.503 | 0.625 | 0.639 | 0.603 | 0.356 | 0.378 | 0.416 | 0.39 | 1.01 | 1.04 | 1.07 | 1.14 | 0.373 | 0.303 | 0.264 | 0.337
2 | HCC-827 | 0.296 | 0.277 | 0.371 | 0.276 | 0.342 | 0.42 | 0.4 | 0.421 | 0.27 | 0.31 | 0.342 | 0.292 | 1.1 | 1.01 | 1.07 | 0.978 | 0.354 | 0.285 | 0.277 | 0.292
3 | HOP-62 | 0.587 | 0.786 | 0.768 | 0.729 | 0.567 | 0.869 | 0.752 | 0.772 | 0.214 | 0.255 | 0.26 | 0.237 | 0.976 | 0.986 | 0.836 | 0.673 | 0.255 | 0.213 | 0.177 | 0.236
4 | LC-2-ad | 0.658 | 0.737 | 0.74 | 0.642 | 0.553 | 0.555 | 0.722 | 0.617 | 0.836 | 0.938 | 0.889 | 0.733 | 0.981 | 0.971 | 0.999 | 0.957 | 0.827 | 0.75 | 0.779 | 0.672
5 | LCLC-97TM1 | 0.927 | 0.893 | 1 | 0.943 | 0.383 | 0.455 | 0.503 | 0.471 | 0.259 | 0.224 | 0.208 | 0.264 | 0.437 | 0.901 | 0.668 | 0.794 | 0.229 | 0.215 | – | 0.261
6 | LCLC-103H | 0.519 | 0.477 | 0.522 | 0.535 | 0.304 | 0.389 | 0.319 | 0.317 | 0.795 | 0.782 | 0.714 | 0.689 | 1.17 | 1.1 | 1.1 | 1.18 | 0.725 | 0.784 | 0.71 | 0.736
7 | LOU-NH91 | 0.553 | – | 0.657 | 0.559 | 0.411 | – | 0.882 | 0.704 | – | 0.799 | 0.842 | 0.828 | 0.452 | 0.475 | 0.469 | 0.526 | 0.813 | 0.813 | 0.811 | 0.796
8 | LU99A | 0.646 | 0.56 | 0.793 | 0.555 | 0.817 | 0.811 | 1.06 | 0.759 | 0.922 | 0.855 | 1.13 | 0.882 | 1.1 | 1.11 | 1.07 | 1.05 | 0.826 | 0.773 | 0.801 | 0.881
9 | LXF-289 | 0.197 | 0.204 | 0.247 | 0.266 | 0.481 | 0.521 | 0.538 | 0.536 | 0.388 | 0.338 | 0.374 | 0.41 | 0.983 | 1.01 | 1.01 | 0.995 | 0.405 | 0.39 | 0.388 | 0.377
10 | NCI-H23 | 0.839 | 0.994 | 0.855 | 0.722 | 0.724 | 0.956 | 0.828 | 0.838 | 0.326 | 0.295 | 0.338 | 0.296 | 0.956 | 1.01 | 0.866 | 0.995 | 0.322 | 0.303 | 0.294 | 0.284
11 | NCI-H322M | 0.261 | 0.251 | 0.262 | 0.256 | 0.867 | 0.821 | 0.795 | 0.791 | 0.604 | 0.699 | 0.722 | 0.661 | 1.21 | 1.31 | 1.28 | 1.07 | 0.691 | 0.711 | 0.689 | 0.751
12 | NCI-H441 | 0.741 | 0.79 | 0.709 | 0.707 | 0.864 | 1.02 | 0.991 | 1 | 0.256 | 0.246 | 0.321 | 0.233 | 0.57 | 0.358 | 0.265 | 0.778 | 0.256 | 0.258 | 0.171 | 0.23
13 | NCI-H460 | 0.621 | 0.682 | 0.679 | 0.494 | 0.917 | 0.576 | 0.677 | 0.609 | 0.568 | 0.657 | 0.478 | 0.428 | 1.3 | 1.02 | 0.859 | 1.14 | 0.436 | 0.424 | 0.242 | 0.451
14 | NCI-H520 | 0.222 | 0.263 | 0.239 | 0.224 | 0.711 | 0.81 | 0.709 | 0.693 | 0.549 | 0.494 | 0.449 | 0.529 | 0.716 | 0.624 | 0.607 | 0.421 | 0.465 | 0.513 | 0.328 | 0.548
15 | NCI-H596 | 0.66 | 0.618 | 0.674 | 0.672 | 0.891 | 0.981 | 0.732 | 0.83 | 1.04 | 1.14 | 0.945 | 1.2 | 0.895 | 1.09 | 1.56 | 1.04 | 0.915 | 1 | 0.93 | 0.942
16 | NCI-H647 | 0.197 | 0.24 | 0.277 | 0.174 | 0.537 | 0.547 | 0.599 | 0.661 | 0.407 | 0.502 | 0.479 | 0.462 | 0.771 | 0.924 | 0.765 | 0.924 | 0.358 | 0.403 | 0.328 | 0.321

— the supplement of paper PMC10307832
